# In PubChem BioAssay AID1963842 (Molecular Pharmacology Branch, DTP, NCI, 2024):
# Test system: 677734-321-R-J1-PDC complex spheroid viability
# Test: Anticancer human tumor 677734-321-R-J1-PDC patient-derived soft tissue sarcoma cell line growth inhibition [POLQ]
# Details: for IC50: curve of first compound; for viability, T/C: stronger effect = lower value
# In short: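 Growth inhibition in 3D: complex spheroids (tumor PDC, HUVEC, MSC) treated with POLQ inhibitor combinations; where Cmax unknown, highest tested concentration 10 microM, except SN-38 at 1 microM.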
# [1] = second compound 0.0316 µM, first compound 0.0316 µM
# [2] = second compound 0.0316 µM, first compound 0.1 µM
# [3] = second compound 0.1 µM, first compound 0.0316 µM
# [4] = second compound 0.1 µM, first compound 0.1 µM
# [5] = second compound 0.316 µM, first compound 0.0316 µM
# [6] = second compound 0.316 µM, first compound 0.1 µM
# [7] = second compound 1 µM, first compound 0.0316 µM
# [8] = second compound 1 µM, first compound 0.1 µM
# [9] = second compound 3.16 µM, first compound 0.0316 µM
# [10] = second compound 3.16 µM, first compound 0.1 µM
# [11] = second compound 10 µM, first compound 0.0316 µM
# [12] = second compound 10 µM, first compound 0.1 µM
# 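Note: spheroids exposed to compounds for one week.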
# 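Throughout, for viability, T/C: 100% = vehicle DMSO treated spheroids.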
compound,measurement,setting,value
COc1cc2cc(C(=O)CCC(=O)O)sc2cc1OC + COC1C(OC(N)=O)C(O)C(Oc2ccc3c(O)c(NC(=O)c4ccc(O)c(CC=C(C)C)c4)c(=O)oc3c2C)OC1(C)C,IC50,second compound 0.0316 µM,> 10 µM
same,IC50,second compound 0.1 µM,> 10 µM
same,IC50,second compound 0.316 µM,> 10 µM
same,IC50,second compound 1 µM,> 10 µM
same,IC50,second compound 3.16 µM,> 10 µM
same,IC50,second compound 10 µM,> 10 µM
same,"viability, T/C",[1],104%
same,"viability, T/C",[2],99.5%
same,"viability, T/C","second compound 0.0316 µM, first compound 0.316 µM",103%
same,"viability, T/C","second compound 0.0316 µM, first compound 1 µM",96.9%
same,"viability, T/C","second compound 0.0316 µM, first compound 3.16 µM",105%
same,"viability, T/C","second compound 0.0316 µM, first compound 10 µM",102%
same,"viability, T/C",[3],110%
same,"viability, T/C",[4],99.6%
same,"viability, T/C","second compound 0.1 µM, first compound 0.316 µM",97.5%
same,"viability, T/C","second compound 0.1 µM, first compound 1 µM",107%
same,"viability, T/C","second compound 0.1 µM, first compound 3.16 µM",106%
same,"viability, T/C","second compound 0.1 µM, first compound 10 µM",102%
same,"viability, T/C",[5],113%
same,"viability, T/C",[6],106%
same,"viability, T/C","second compound 0.316 µM, first compound 0.316 µM",98.8%
same,"viability, T/C","second compound 0.316 µM, first compound 1 µM",102%
same,"viability, T/C","second compound 0.316 µM, first compound 3.16 µM",111%
same,"viability, T/C","second compound 0.316 µM, first compound 10 µM",102%
same,"viability, T/C",[7],109%
same,"viability, T/C",[8],102%
same,"viability, T/C","second compound 1 µM, first compound 0.316 µM",104%
same,"viability, T/C","second compound 1 µM, first compound 1 µM",109%
same,"viability, T/C","second compound 1 µM, first compound 3.16 µM",105%
same,"viability, T/C","second compound 1 µM, first compound 10 µM",102%
same,"viability, T/C",[9],108%
same,"viability, T/C",[10],104%
same,"viability, T/C","second compound 3.16 µM, first compound 0.316 µM",114%
same,"viability, T/C","second compound 3.16 µM, first compound 1 µM",110%
same,"viability, T/C","second compound 3.16 µM, first compound 3.16 µM",109%
same,"viability, T/C","second compound 3.16 µM, first compound 10 µM",103%
same,"viability, T/C",[11],112%
same,"viability, T/C",[12],101%
same,"viability, T/C","second compound 10 µM, first compound 0.316 µM",109%
same,"viability, T/C","second compound 10 µM, first compound 1 µM",99%
same,"viability, T/C","second compound 10 µM, first compound 3.16 µM",111%
same,"viability, T/C","second compound 10 µM, first compound 10 µM",111%
Cn1ncnc1[C@H]1c2n[nH]c(=O)c3cc(F)cc(c23)N[C@@H]1c1ccc(F)cc1 + COC1C(OC(N)=O)C(O)C(Oc2ccc3c(O)c(NC(=O)c4ccc(O)c(CC=C(C)C)c4)c(=O)oc3c2C)OC1(C)C,IC50,second compound 0.0316 µM,> 0.1 µM
same,IC50,second compound 0.1 µM,> 0.1 µM
same,IC50,second compound 0.316 µM,> 0.1 µM
same,IC50,second compound 1 µM,> 0.1 µM
same,IC50,second compound 3.16 µM,> 0.1 µM
same,IC50,second compound 10 µM,> 0.1 µM
same,"viability, T/C","second compound 0.0316 µM, first compound 0.000316 µM",101%
same,"viability, T/C","second compound 0.0316 µM, first compound 0.001 µM",103%
same,"viability, T/C","second compound 0.0316 µM, first compound 0.00316 µM",99.7%
same,"viability, T/C","second compound 0.0316 µM, first compound 0.01 µM",101%
same,"viability, T/C",[1],98.8%
same,"viability, T/C",[2],85.7%
same,"viability, T/C","second compound 0.1 µM, first compound 0.000316 µM",97.6%
same,"viability, T/C","second compound 0.1 µM, first compound 0.001 µM",101%
same,"viability, T/C","second compound 0.1 µM, first compound 0.00316 µM",106%
same,"viability, T/C","second compound 0.1 µM, first compound 0.01 µM",101%
same,"viability, T/C",[3],98.5%
same,"viability, T/C",[4],95.2%
same,"viability, T/C","second compound 0.316 µM, first compound 0.000316 µM",106%
same,"viability, T/C","second compound 0.316 µM, first compound 0.001 µM",97.8%
same,"viability, T/C","second compound 0.316 µM, first compound 0.00316 µM",98.5%
same,"viability, T/C","second compound 0.316 µM, first compound 0.01 µM",104%
same,"viability, T/C",[5],97.6%
same,"viability, T/C",[6],93.4%
same,"viability, T/C","second compound 1 µM, first compound 0.000316 µM",109%
same,"viability, T/C","second compound 1 µM, first compound 0.001 µM",102%
same,"viability, T/C","second compound 1 µM, first compound 0.00316 µM",103%
same,"viability, T/C","second compound 1 µM, first compound 0.01 µM",104%
same,"viability, T/C",[7],96.3%
same,"viability, T/C",[8],92.5%
same,"viability, T/C","second compound 3.16 µM, first compound 0.000316 µM",108%
same,"viability, T/C","second compound 3.16 µM, first compound 0.001 µM",94.7%
same,"viability, T/C","second compound 3.16 µM, first compound 0.00316 µM",103%
same,"viability, T/C","second compound 3.16 µM, first compound 0.01 µM",100%
same,"viability, T/C",[9],106%
same,"viability, T/C",[10],94.4%
same,"viability, T/C","second compound 10 µM, first compound 0.000316 µM",103%
same,"viability, T/C","second compound 10 µM, first compound 0.001 µM",100%
same,"viability, T/C","second compound 10 µM, first compound 0.00316 µM",106%
same,"viability, T/C","second compound 10 µM, first compound 0.01 µM",103%
same,"viability, T/C",[11],99.4%
same,"viability, T/C",[12],93.3%
